Consider 19 compounds from US20250034136A1 (Nimbus Wadjet, Inc., priority 2023, published 2025).

The subject of assay [1] is p21 induction in HCT116 cells. In words: p21 induction in HCT116 cells. The class given is cell-based. The settings on record: Homo sapiens, HCT-116, 24 h, HCT116 cells, 24 h compound incubation; read-out: P21_EC50. In a few lines: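 HCT116 cells, 2,000/well, treated 24 h at 37 °C with 11-point compound dilutions in duplicate. Fixed, then immunostained for p21 and GAPDH and read by near-IR imaging at 800/700 nm. Normalized to DMSO (low) and reference WRN inhibitor (high) controls; EC50 from non-linear regression.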

Assay [2] has as its target WRN (BV08), human Werner helicase (Uniprot Q14191, amino acids 517-1235 with L1074F point mutation) (Homo sapiens (Human), UniProt Q14191, L1074F). In words: WRN (BV08) ADP-Glo assay. It counts as biochemical. To be noted: class symbols A-E, read-out: ADP-Glo_hWRN_IC50. (ADP-Glo turns the ADP formed in a reaction into a luminescent signal.)

Chain of WRN (BV08), human Werner helicase (Uniprot Q14191, amino acids 517-1235 with L1074F point mutation) (Q14191 other isoform, or with tags, fused parts or gaps L1074F (already in the parent)): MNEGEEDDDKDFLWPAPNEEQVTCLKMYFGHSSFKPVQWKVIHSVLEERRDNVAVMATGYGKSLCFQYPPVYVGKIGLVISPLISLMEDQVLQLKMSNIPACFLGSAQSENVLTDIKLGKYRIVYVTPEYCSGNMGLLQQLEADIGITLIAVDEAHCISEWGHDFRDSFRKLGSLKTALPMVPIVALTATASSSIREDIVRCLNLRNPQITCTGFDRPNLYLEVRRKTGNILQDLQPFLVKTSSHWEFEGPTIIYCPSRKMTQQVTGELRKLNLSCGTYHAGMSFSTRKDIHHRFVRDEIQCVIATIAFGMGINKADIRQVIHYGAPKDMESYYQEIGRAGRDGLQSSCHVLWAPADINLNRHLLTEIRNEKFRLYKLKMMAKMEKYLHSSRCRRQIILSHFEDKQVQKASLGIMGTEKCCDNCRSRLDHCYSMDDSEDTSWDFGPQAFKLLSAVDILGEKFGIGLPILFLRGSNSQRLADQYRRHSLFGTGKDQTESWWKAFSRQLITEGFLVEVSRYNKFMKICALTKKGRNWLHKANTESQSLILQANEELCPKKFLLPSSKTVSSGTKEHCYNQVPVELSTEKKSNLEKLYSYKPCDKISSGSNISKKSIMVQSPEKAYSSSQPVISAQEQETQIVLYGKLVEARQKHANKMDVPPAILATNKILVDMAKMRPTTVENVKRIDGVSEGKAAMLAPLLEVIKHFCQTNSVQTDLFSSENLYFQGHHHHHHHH

With `CCc1c(N2CCN(C(=O)c3ncnc(C)c3O)CC2)c(=O)c2nc(N3CC[C@@H](O)C3)cnc2n1CC(=O)Nc1ccc(C(F)(F)F)cc1Cl` [I-56, (R)-N-(2-chloro-4-(trifluoromethyl)phenyl)-2-(6-ethyl-7-(4-(5-hydroxy-6-methylpyrimidine-4-carbonyl)piperazin-1-yl)-2-(3-hydroxypyrrolidin-1-yl)-8-oxopyrido[2,3-b]pyrazin-5(8H)-yl)acetamide], the EC50 in assay [1] is more than 5000 nM. In addition, the IC50 in assay [2] was 5 to 50 nM.

In the case of `CCc1c(N2CCN(C(=O)c3ncnc(C)c3O)[C@H](C)C2)c(=O)c2nc(N(C)C)cnc2n1CC(=O)Nc1ccc(C(F)(F)F)cc1Cl` [I-57, (R)-N-(2-chloro-4-(trifluoromethyl)phenyl)-2-(2-(dimethylamino)-6-ethyl-7-(4-(5-hydroxy-6-methylpyrimidine-4-carbonyl)-3-methylpiperazin-1-yl)-8-oxopyrido[2,3-b]pyrazin-5(8H)-yl)acetamide], the EC50 in assay [1] is 500 to 2000 nM. Further, in assay [2], the IC50 was 5 to 50 nM.

`CCc1c(N2CCN(C(=O)c3ncnc(C)c3O)CC2)c(=O)c2nc(N(C)C3CC3)cnc2n1CC(=O)Nc1ccc(C(F)(F)F)cc1Cl` [I-58, N-(2-chloro-4-(trifluoromethyl)phenyl)-2-(2-(cyclopropyl(methyl)amino)-6-ethyl-7-(4-(5-hydroxy-6-methylpyrimidine-4-carbonyl)piperazin-1-yl)-8-oxopyrido[2,3-b]pyrazin-5(8H)-yl)acetamide]: the EC50 in assay [1] is less than 500 nM. For the same compound, the IC50 in assay [2] fell in the range of 5 to 50 nM.

Turning to `CCc1c(N2CCN(C(=O)c3ncnc(C)c3O)CC2)c(=O)c2nc(N(C)C3CC(C)(O)C3)cnc2n1CC(=O)Nc1ccc(C(F)(F)F)cc1Cl` (centres unmarked) [I-59, N-(2-chloro-4-(trifluoromethyl)phenyl)-2-(6-ethyl-2-((3-hydroxy-3-methylcyclobutyl)(methyl)amino)-7-(4-(5-hydroxy-6-methylpyrimidine-4-carbonyl)piperazin-1-yl)-8-oxopyrido[2,3-b]pyrazin-5(8H)-yl)acetamide], the EC50 in assay [1] was in the range of 2000 to 5000 nM. In addition, the IC50 in assay [2] lay in the range of 5 to 50 nM.

Regarding `CCc1c(N2CCN(C(=O)c3ncnc(C)c3O)CC2)c(=O)c2nc(N(C)C3CC(OC)C3)cnc2n1CC(=O)Nc1ccc(C(F)(F)F)cc1Cl` (centres unmarked) [I-60, N-(2-chloro-4-(trifluoromethyl)phenyl)-2-(6-ethyl-7-(4-(5-hydroxy-6-methylpyrimidine-4-carbonyl)piperazin-1-yl)-2-((3-methoxycyclobutyl)(methyl)amino)-8-oxopyrido[2,3-b]pyrazin-5(8H)-yl)acetamide], the EC50 in assay [1] fell in the range of 500 to 2000 nM. Also, the IC50 in assay [2] lay in the range of 5 to 50 nM.

`CCc1c(N2CCN(C(=O)c3ncnc(C)c3O)CC2)c(=O)c2nc3cc(C)sc3nc2n1CC(=O)Nc1ccc(C(F)(F)F)cc1Cl` [I-61, N-(2-chloro-4-(trifluoromethyl)phenyl)-2-(7-ethyl-6-(4-(5-hydroxy-6-methylpyrimidine-4-carbonyl)piperazin-1-yl)-2-methyl-5-oxopyrido[2,3-b]thieno[3,2-e]pyrazin-8(5H)-yl)acetamide]: the EC50 in assay [1] is less than 500 nM. Besides, in assay [2], the IC50 was 5 to 50 nM.

Consider `CCc1c(N2CCN(C(=O)c3c(F)cnc(OC)c3O)CC2)c(=O)c2ncc(C)nc2n1CC(=O)Nc1ccc(C(F)(F)F)cc1Cl` [I-62, N-(2-chloro-4-(trifluoromethyl)phenyl)-2-(6-ethyl-7-(4-(5-fluoro-3-hydroxy-2-methoxyisonicotinoyl)piperazin-1-yl)-3-methyl-8-oxopyrido[2,3-b]pyrazin-5(8H)-yl)acetamide], for which, in assay [1], the EC50 was more than 5000 nM. Besides, in assay [2], the IC50 was in the range of 5 to 50 nM.

Consider `CCc1c(N2CCN(C(=O)c3ncnc(C)c3O)CC2)c(=O)c2nc(-c3cnn(C)c3)c(C)nc2n1CC(=O)Nc1ccc(C(F)(F)F)cc1Cl` [I-63, N-(2-chloro-4-(trifluoromethyl)phenyl)-2-(6-ethyl-7-(4-(5-hydroxy-6-methylpyrimidine-4-carbonyl)piperazin-1-yl)-3-methyl-2-(1-methyl-1H-pyrazol-4-yl)-8-oxopyrido[2,3-b]pyrazin-5(8H)-yl)acetamide], for which the EC50 in assay [1] is more than 5000 nM. Moreover, in assay [2], the IC50 was in the range of 5 to 50 nM.

Turning to `CCc1c(N2CCN(C(=O)c3ncnc(C)c3O)CC2)c(=O)c2nc(C)c(C)nc2n1CC(=O)Nc1ccc(C(F)(F)F)cc1Cl` [I-64, N-(2-chloro-4-(trifluoromethyl)phenyl)-2-(6-ethyl-7-(4-(5-hydroxy-6-methylpyrimidine-4-carbonyl)piperazin-1-yl)-2,3-dimethyl-8-oxopyrido[2,3-b]pyrazin-5(8H)-yl)acetamide], the EC50 in assay [1] was 500 to 2000 nM. In addition, in assay [2], the IC50 lay within 5 to 50 nM.

Regarding `CCc1c(N2CCN(C(=O)c3ncnc(C)c3O)CC2)c(=O)c2nc(-c3ccnc(OC)c3)c(C)nc2n1CC(=O)Nc1ccc(C(F)(F)F)cc1Cl` [I-65, N-(2-chloro-4-(trifluoromethyl)phenyl)-2-(6-ethyl-7-(4-(5-hydroxy-6-methylpyrimidine-4-carbonyl)piperazin-1-yl)-2-(2-methoxypyridin-4-yl)-3-methyl-8-oxopyrido[2,3-b]pyrazin-5(8H)-yl)acetamide], the EC50 in assay [1] was more than 5000 nM. Besides, the IC50 in assay [2] fell in the range of 5 to 50 nM.

In the case of `CCc1c(N2CCN(C(=O)c3ncnc(C)c3O)CC2)c(=O)c2nc(N3CC(OC)C3)cnc2n1CC(=O)Nc1ccc(C(F)(F)F)cc1Cl` [I-66, N-(2-chloro-4-(trifluoromethyl)phenyl)-2-(6-ethyl-7-(4-(5-hydroxy-6-methylpyrimidine-4-carbonyl)piperazin-1-yl)-2-(3-methoxyazetidin-1-yl)-8-oxopyrido[2,3-b]pyrazin-5(8H)-yl)acetamide], the EC50 in assay [1] lay within 2000 to 5000 nM. Also, in assay [2], the IC50 fell in the range of 5 to 50 nM.

For `CCc1c(N2CCN(C(=O)c3c(O)cccc3O)CC2)c(=O)c2ncc(C)nc2n1CC(=O)Nc1ccc(C(F)(F)F)cc1Cl` [I-67, N-(2-chloro-4-(trifluoromethyl)phenyl)-2-(7-(4-(2,6-dihydroxybenzoyl)piperazin-1-yl)-6-ethyl-3-methyl-8-oxopyrido[2,3-b]pyrazin-5(8H)-yl)acetamide], the EC50 in assay [1] was more than 5000 nM. In addition, in assay [2], the IC50 was 5 to 50 nM.

`CCc1c(N2CCN(C(=O)c3ncc4c(c3O)OCC4)CC2)c(=O)c2ncc(C)nc2n1CC(=O)Nc1ccc(C(F)(F)F)cc1Cl` [I-68, N-(2-chloro-4-(trifluoromethyl)phenyl)-2-(6-ethyl-7-(4-(7-hydroxy-2,3-dihydrofuro[3,2-c]pyridine-6-carbonyl)piperazin-1-yl)-3-methyl-8-oxopyrido[2,3-b]pyrazin-5(8H)-yl)acetamide]: the EC50 in assay [1] was more than 5000 nM. In addition, the IC50 in assay [2] was 5 to 50 nM.

For `CCc1c(N2CCN(C(=O)c3ncc4c(c3O)CCO4)CC2)c(=O)c2ncc(C)nc2n1CC(=O)Nc1ccc(C(F)(F)F)cc1Cl` [I-69, N-(2-chloro-4-(trifluoromethyl)phenyl)-2-(6-ethyl-7-(4-(4-hydroxy-2,3-dihydrofuro[2,3-c]pyridine-5-carbonyl)piperazin-1-yl)-3-methyl-8-oxopyrido[2,3-b]pyrazin-5(8H)-yl)acetamide], the EC50 in assay [1] is more than 5000 nM. Further, in assay [2], the IC50 fell in the range of 5 to 50 nM.

As to `CCc1c(N2CCN(C(=O)c3cccc4oc(=O)[nH]c34)CC2)c(=O)c2ncc(C)nc2n1CC(=O)Nc1ccc(C(F)(F)F)cc1Cl` [I-70, N-(2-chloro-4-(trifluoromethyl)phenyl)-2-(6-ethyl-3-methyl-8-oxo-7-(4-(2-oxo-2,3-dihydrobenzo[d]oxazole-4-carbonyl)piperazin-1-yl)pyrido[2,3-b]pyrazin-5(8H)-yl)acetamide], the EC50 in assay [1] was more than 5000 nM. Further, the IC50 in assay [2] fell in the range of 5 to 50 nM.

With `CCc1c(N2CCN(C(=O)c3c(O)ccc4nc[nH]c34)CC2)c(=O)c2ncc(C)nc2n1CC(=O)Nc1ccc(C(F)(F)F)cc1Cl` [I-71, N-(2-chloro-4-(trifluoromethyl)phenyl)-2-(6-ethyl-7-(4-(6-hydroxy-1H-benzo[d]imidazole-7-carbonyl)piperazin-1-yl)-3-methyl-8-oxopyrido[2,3-b]pyrazin-5(8H)-yl)acetamide], the EC50 in assay [1] was more than 5000 nM. Further, in assay [2], the IC50 is 5 to 50 nM.

Regarding `CCc1c(N2CCN(C(=O)c3ncnc(C)c3O)CC2)c(=O)c2nc(N(C)CCOC)cnc2n1CC(=O)Nc1ccc(C(F)(F)F)cc1Cl` [I-72, N-(2-chloro-4-(trifluoromethyl)phenyl)-2-(6-ethyl-7-(4-(5-hydroxy-6-methylpyrimidine-4-carbonyl)piperazin-1-yl)-2-((2-methoxyethyl)(methyl)amino)-8-oxopyrido[2,3-b]pyrazin-5(8H)-yl)acetamide], the EC50 in assay [1] is more than 5000 nM. Further, the IC50 in assay [2] was 5 to 50 nM.

As to `CCc1c(N2CCN(C(=O)c3ncnc(C)c3O)CC2)c(=O)c2nc(N(C)CCO)cnc2n1CC(=O)Nc1ccc(C(F)(F)F)cc1Cl` [I-73, N-(2-chloro-4-(trifluoromethyl)phenyl)-2-(6-ethyl-7-(4-(5-hydroxy-6-methylpyrimidine-4-carbonyl)piperazin-1-yl)-2-((2-hydroxyethyl)(methyl)amino)-8-oxopyrido[2,3-b]pyrazin-5(8H)-yl)acetamide], in assay [1], the EC50 is more than 5000 nM. The IC50 in assay [2] was in the range of 5 to 50 nM.

As for `CCc1c(N2CCN(C(=O)c3ncnc(C)c3O)CC2)c(=O)c2nc(N(C)CC)cnc2n1CC(=O)Nc1ccc(C(F)(F)F)cc1Cl` [I-74, N-(2-chloro-4-(trifluoromethyl)phenyl)-2-(6-ethyl-2-(ethyl(methyl)amino)-7-(4-(5-hydroxy-6-methylpyrimidine-4-carbonyl)piperazin-1-yl)-8-oxopyrido[2,3-b]pyrazin-5(8H)-yl)acetamide], the EC50 in assay [1] is 500 to 2000 nM. For the same compound, the IC50 in assay [2] is 5 to 50 nM.
